Source: PubChem BioAssay (NCI)
Several values for one entry are separate records, joined by “and”; a condition that tells them apart may be missing. Equal values may be shown once.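 Cells were grown in 96-well plates and exposed to each compound for 48 hours at five concentrations; endpoints were interpolated linearly between bracketing concentrations, or set to the highest concentration if not reached. GI50: concentration for 50% inhibition of growth. TGI is the concentration that stops growth completely.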

What was measured:
Test in all cases: growth of human tumour cells (NCI), 48 h
UACC-62 melanoma = tested on: UACC-62 melanoma
SF-295 CNS = tested on: SF-295 CNS
RPMI-8226 leukemia = tested on: RPMI-8226 leukemia
HL-60(TB) leukemia = tested on: HL-60(TB) leukemia
786-0 renal = tested on: 786-0 renal
OVCAR-5 ovarian = tested on: OVCAR-5 ovarian
SF-539 CNS = tested on: SF-539 CNS
SNB-19 CNS = tested on: SNB-19 CNS
MDA-MB-435 = tested on: MDA-MB-435
PC-3 prostate = tested on: PC-3 prostate

SMILES | GI50 (UACC-62 melanoma) | TGI (UACC-62 melanoma) | GI50 (SF-295 CNS) | TGI (SF-295 CNS) | GI50 (RPMI-8226 leukemia) | TGI (RPMI-8226 leukemia) | GI50 (HL-60(TB) leukemia) | TGI (HL-60(TB) leukemia) | GI50 (786-0 renal) | TGI (786-0 renal) | GI50 (OVCAR-5 ovarian) | TGI (OVCAR-5 ovarian) | GI50 (SF-539 CNS) | TGI (SF-539 CNS) | GI50 (SNB-19 CNS) | TGI (SNB-19 CNS) | GI50 (MDA-MB-435) | TGI (MDA-MB-435) | GI50 (PC-3 prostate) | TGI (PC-3 prostate)
COc1ccc(Cl)cc1Nc1nc(C(F)(F)F)ccc1C(=O)N/N=C/c1ccccc1Cl | 1.93 µM | 9.83 µM | 0.27 µM | 1.36 µM | 2.17 µM | 6.81 µM | 2.74 µM | > 19.7 µM | 4.66 µM | > 23 µM | 3.55 µM | 54 µM | 1.85 µM | 5.03 µM | 2.34 µM | > 55.7 µM | 2.61 µM | > 27.7 µM | 2.84 µM | > 100 µM
Cc1ccc2c(c1)C(=O)/C(=C/c1cccc(OCC(=O)c3ccc(Cl)cc3)c1)CS2 | 9.14 µM | 25.8 µM | 3.17 µM | 12.1 µM | 1.85 µM | 4.47 µM | 2.95 µM | 13.4 µM | 11.3 µM | 24.6 µM | 15.7 µM | 30 µM | 17.8 µM | 36.6 µM | 19.5 µM | 77.1 µM | 2.4 µM | 6.26 µM | 2.99 µM | –
C=C1C(=O)O[C@H]2C3OC3(C)CC/C=C(/C(=O)OC)[C@@H](OC(C)=O)[C@H](OC(=O)C3(C)OC3C)[C@H]12 (some centres undefined) | 1.59 µM and 1.66 µg/mL | 3.01 µM and 3.64 µg/mL | 4.84 µg/mL | 14.8 µg/mL | 0.329 µg/mL | 1.21 µM and 2.66 µM and 0.941 µg/mL | 154 nM and 0.285 µg/mL | 477 nM and 655 nM and 0.679 µg/mL | 1.65 µM and 362 nM and 1.26 µg/mL | 3.73 µM and 8.4 µM and 3.45 µg/mL | 2.6 µg/mL | 8.82 µM and 4.66 µg/mL | 2.88 µM and 1.98 µM and 3.21 µg/mL | 7.5 µM and 6.28 µM and 7.06 µg/mL | 23.1 µg/mL | > 7.5 µM and 53.5 µg/mL | – | 3.95 µM and 4.99 µM | 2.99 µM | 5.16 µM and 11.7 µM
COc1ccc2c(c1)C(=O)/C(=C/c1cccc(OCC(=O)c3ccc([N+](=O)[O-])cc3)c1)CO2 | 2.82 µM | 9.36 µM | 2.26 µM | 7.1 µM | 1.13 µM | – | 2.34 µM | 12.8 µM | 2 µM | 4.83 µM | 2.34 µM | 5.08 µM | 2.33 µM | 6.12 µM | 12.4 µM | 25.4 µM | 2.32 µM | 7.11 µM | 2.13 µM | 7.95 µM
N#Cc1ccc(C(=O)c2cnn(-c3ccc(F)cc3)c2N)cc1 | > 25 µM | > 25 µM | > 25 µM | > 25 µM | > 25 µM | > 25 µM | > 25 µM | > 25 µM | > 25 µM | > 25 µM | > 25 µM | > 25 µM | > 25 µM | > 25 µM | > 25 µM | > 25 µM | > 25 µM | > 25 µM | > 25 µM | > 25 µM
Cn1c2ccccc2c2c(=O)n(CCCC(=O)NCCc3cnc[nH]3)c3c(-c4ccccc4)nnn3c21 | 9.87 µM | 17.6 µM | 9.18 µM | 17.8 µM | 10.5 µM | 28.6 µM | 11.8 µM | 28.4 µM | 2.19 µM | 8.15 µM | 10.8 µM | 20.3 µM | 9.26 µM | 17.2 µM | 11.8 µM | 24.1 µM | 10.2 µM | 20 µM | 9.01 µM | 20.1 µM
O=C1NC(c2cccc3ccccc23)Nc2ccccc21 (centres undefined) | – | > 100 µM | 0.0592 µM | 0.894 µM | – | 0.493 µM and 1.05 µM | 0.00675 µM | 0.0391 µM and 0.0342 µM | 0.0254 µM | > 100 µM | – | > 65.3 µM | 0.0105 µM | 0.0329 µM and 0.165 µM | 0.0554 µM | > 100 µM | – | 0.0068 µM | 0.0263 µM | 0.213 µM
CN(CO)c1nc(N(C)CO)nc(N(C)CO)n1 | 17.2 µM | 33.8 µM and 25.4 µM | – | > 73.4 µM | 27.5 µM | > 91.4 µM and 43.4 µM | 26 µM | 75.1 µM and 16.5 µM | 29.6 µM | 56.9 µM and 105 µM | – | 63 µM and > 73.8 µM | 23.6 µM and 17.2 µM | 52.4 µM and 36.9 µM | 29.8 µM | 45.3 µM and 50.4 µM | – | 40.3 µM | – | 45.6 µM and 51.3 µM
Fc1ccc(-c2c(-c3ccncc3)[nH]c3cccnc23)cc1 | 12 µM | > 25 µM | > 25 µM | > 25 µM | > 25 µM | > 25 µM | > 25 µM | > 25 µM | > 25 µM | > 25 µM | > 25 µM | > 25 µM | > 25 µM | > 25 µM | > 25 µM | > 25 µM | > 25 µM | > 25 µM | > 25 µM | > 25 µM
Oc1ccccc1/C=N\Nc1ccccc1 | 0.798 µM | 10.1 µM | 1.63 µM | 8.07 µM | 3.99 µM | 56.8 µM | 1.31 µM | 4.8 µM | 2.7 µM | 16.6 µM | 8.75 µM | 39.2 µM | 2.18 µM | 5.59 µM | 13.7 µM | 95 µM | 2.87 µM | > 100 µM | 9.32 µM | > 100 µM
CCc1nc(N)nc(N)c1-c1ccc(N(C)Cc2ccccc2)c([N+](=O)[O-])c1 | – | 13 µM | – | 15.3 µM | – | 4.13 µM | – | 5.88 µM | – | 30.3 µM | – | 32.9 µM | – | 9.97 µM | – | 37.3 µM | – | 17.9 µM | – | 16.6 µM
O=C1/C=C/[C@@H](O)[C@@H]2C[C@@H](O)C[C@H]2/C=C/CCC[C@H](CCc2ccc(NC(=S)Nc3ccc4c(c3)C(=O)OC43c4ccc(O)cc4Oc4cc(O)ccc43)cc2)O1 | 0.397 µM | 30.7 µM | 0.486 µM | > 100 µM | 0.339 µM | 2.39 µM | 4.51 µM | > 100 µM | 0.262 µM | 0.771 µM | 0.698 µM | > 100 µM | 0.724 µM | > 100 µM | 0.59 µM | > 100 µM | 0.377 µM | > 100 µM | 0.516 µM | > 100 µM
CCCn1cc(/C=N\N=C2\C(=O)Nc3ccc(C)cc32)c2ccccc21 | 2.24 µM | 12.1 µM | 8.41 µM | 96.6 µM | 1.33 µM | 3.96 µM | 1.31 µM | 4.8 µM | 5.94 µM | 71.2 µM | 4.04 µM | 25.8 µM | 2.69 µM | 17.1 µM | 4.24 µM | > 100 µM | 1.5 µM | 2.96 µM | 1.83 µM | 5.17 µM
